Measured values taken from the supplement of paper PMC10307832.

Tests used:
Experiment in all cases: relative viability (nuclei count vs DMSO), 5 days (fraction); higher = more cells survive
Etoposide + Phenformin = compound: COc1cc([C@@H]2c3cc4c(cc3[C@@H](O[C@@H]3O[C@@H]5CO[C@@H](C)O[C@H]5[C@H](O)[C@H]3O)[C@H]3COC(=O)[C@H]23)OCO4)cc(OC)c1O [Etoposide] + N=C(N)NC(=N)NCCc1ccccc1 [Phenformin] (partner 250 µM)
Outline: (§1)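 After 5 days of treatment, lung cancer cells in 1536-well plates were fixed and stained in a single step (final 0.05% Triton X-100, 1% formaldehyde, 1 ug/ml Hoechst) and their nuclei counted on 4× images. Treatment had been applied by pin tool the day after seeding as one drug alone or as a fixed anchor-drug dose with five library-drug doses (not always all listed) in √10 steps. Relative viability is the nuclei count of treated wells divided by that of vehicle wells, and values are medians of duplicate plates.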

Bleomycin + AZD7762 = compound: CC1=C(N=C(N=C1N)[C@H](CC(=O)N)NC[C@@H](C(=O)N)N)C(=O)N[C@@H]([C@H](C2=CN=CN2)OC3C(C(C(C(O3)CO)O)O)OC4C(C(C(C(O4)CO)O)OC(=O)N)O)C(=O)N[C@H](C)[C@H]([C@H](C)C(=O)N[C@@H]([C@@H](C)O)C(=O)NCCC5=NC(=CS5)C6=NC(=CS6)C(=O)NCCC[S+](C)C)O [Bleomycin] + NC(=O)Nc1cc(-c2cccc(F)c2)sc1C(=O)N[C@H]1CCCNC1 [AZD7762] (partner 0.2 µM); conditions: main component drawn
Outline: as §1

Bleomycin + Trametinib = compound: CC1=C(N=C(N=C1N)[C@H](CC(=O)N)NC[C@@H](C(=O)N)N)C(=O)N[C@@H]([C@H](C2=CN=CN2)OC3C(C(C(C(O3)CO)O)O)OC4C(C(C(C(O4)CO)O)OC(=O)N)O)C(=O)N[C@H](C)[C@H]([C@H](C)C(=O)N[C@@H]([C@@H](C)O)C(=O)NCCC5=NC(=CS5)C6=NC(=CS6)C(=O)NCCC[S+](C)C)O [Bleomycin] + CC(=O)Nc1cccc(-n2c(=O)n(C3CC3)c(=O)c3c(Nc4ccc(I)cc4F)n(C)c(=O)c(C)c32)c1 [Trametinib] (partner 0.02 µM); conditions: main component drawn
Outline: as §1

Bleomycin + Pictilisib = compound: CC1=C(N=C(N=C1N)[C@H](CC(=O)N)NC[C@@H](C(=O)N)N)C(=O)N[C@@H]([C@H](C2=CN=CN2)OC3C(C(C(C(O3)CO)O)O)OC4C(C(C(C(O4)CO)O)OC(=O)N)O)C(=O)N[C@H](C)[C@H]([C@H](C)C(=O)N[C@@H]([C@@H](C)O)C(=O)NCCC5=NC(=CS5)C6=NC(=CS6)C(=O)NCCC[S+](C)C)O [Bleomycin] + CS(=O)(=O)N1CCN(Cc2cc3nc(-c4cccc5[nH]ncc45)nc(N4CCOCC4)c3s2)CC1 [Pictilisib] (partner 1 µM); conditions: main component drawn
Outline: as §1

Cell Line	relative viability (Etoposide + Phenformin; first compound 0.01 µM)	relative viability (Etoposide + Phenformin; first compound 0.03162 µM)	relative viability (Etoposide + Phenformin; first compound 0.1 µM)	relative viability (Etoposide + Phenformin; first compound 0.3162 µM)	relative viability (Etoposide + Phenformin; first compound 1 µM)	relative viability (Bleomycin + AZD7762; first compound 0.01 µM)	relative viability (Bleomycin + AZD7762; first compound 0.03162 µM)	relative viability (Bleomycin + AZD7762; first compound 0.1 µM)	relative viability (Bleomycin + AZD7762; first compound 0.3162 µM)	relative viability (Bleomycin + AZD7762; first compound 1 µM)	relative viability (Bleomycin + Trametinib; first compound 0.01 µM)	relative viability (Bleomycin + Trametinib; first compound 0.03162 µM)	relative viability (Bleomycin + Trametinib; first compound 0.1 µM)	relative viability (Bleomycin + Trametinib; first compound 0.3162 µM)	relative viability (Bleomycin + Trametinib; first compound 1 µM)	relative viability (Bleomycin + Pictilisib; first compound 0.01 µM)	relative viability (Bleomycin + Pictilisib; first compound 0.03162 µM)	relative viability (Bleomycin + Pictilisib; first compound 0.1 µM)	relative viability (Bleomycin + Pictilisib; first compound 0.3162 µM)	relative viability (Bleomycin + Pictilisib; first compound 1 µM)
A-427	0.362	0.317	0.258	0.213	0.143	0.7	0.748	0.542	0.353	0.241	0.607	0.558	0.417	0.261	0.212	0.58	0.488	0.492	0.155	0.174
NCI-H2405	0.381	0.432	0.415	0.364	0.283	0.668	0.683	0.632	0.531	0.304	0.537	0.529	0.578	0.444	0.313	0.45	0.417	0.42	0.254	0.202
NCI-H1355	0.452	0.493	0.408	0.325	0.218	0.783	0.9	0.783	0.63	0.323	0.415	0.385	0.482	0.317	0.198	0.425	0.458	0.358	0.214	0.214
NCI-H358	0.341	0.402	0.219	0.114	0.0696	0.417	0.579	0.551	0.426	0.446	0.138	0.138	0.127	0.138	0.108	0.349	0.355	0.34	0.233	0.228
RERF-LC-KJ	0.414	0.469	0.42	0.36	0.329	0.905	0.848	0.492	0.278	0.179	0.678	0.563	0.492	0.272	0.229	0.269	0.433	0.316	0.188	0.167
NCI-H23	0.822	0.834	0.633	0.392	0.259	0.259	0.241	0.159	0.121	0.119	0.226	0.321	0.189	0.161	0.144	0.262	0.348	0.263	0.169	0.153
HOP-62	0.71	0.795	0.578	0.475	0.276	0.325	0.292	0.209	0.16	0.0932	0.34	0.278	0.264	0.203	0.159	0.427	0.31	0.389	0.115	0.103
